According to patent publication US6649379B1, “Method and deregulated enzyme for threonine production” (priority 1987, dated 2003):

T1: homoserine dehydrogenase enzyme of C. glutamicum (Corynebacterium glutamicum, UniProt P08499)
T1 sequence (P08499 1-445): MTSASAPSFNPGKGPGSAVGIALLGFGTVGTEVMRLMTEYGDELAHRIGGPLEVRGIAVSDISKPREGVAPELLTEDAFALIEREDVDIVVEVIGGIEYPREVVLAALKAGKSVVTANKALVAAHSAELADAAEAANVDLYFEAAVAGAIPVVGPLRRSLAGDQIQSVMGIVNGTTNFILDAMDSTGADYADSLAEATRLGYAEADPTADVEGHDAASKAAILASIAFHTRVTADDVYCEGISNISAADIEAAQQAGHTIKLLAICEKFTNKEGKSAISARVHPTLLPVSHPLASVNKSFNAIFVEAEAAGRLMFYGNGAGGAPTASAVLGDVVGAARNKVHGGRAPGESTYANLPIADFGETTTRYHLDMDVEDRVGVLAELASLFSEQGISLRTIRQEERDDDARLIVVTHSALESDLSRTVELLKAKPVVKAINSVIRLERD

T2: homoserine dehydrogenase (Corynebacterium glutamicum, UniProt P08499)
T2 construct: Crude cell lysates for homoserine dehydrogenase assays were prepared from 500 ml MMCG C. glutamicum AS019 and R102 cultures; endogenous in cells; host or cells: C. glutamicum AS019 and AS019E12/pMF33 (chromosomal wild-type hom); R102 (chromosomal hom^dr); AS019E12/pJD4 (plasmid-borne hom^dr beside chromosomal wild-type hom)
T2 sequence (P08499 whole entry, looked up): T1 sequence (P08499 1-445)

B1: wild type: wild type C. glutamicum homoserine dehydrogenase (SEQ ID NO:2) (protein)
chain: T1 sequence (P08499 1-445)

Assays:
[1] = molecular target: T1, homoserine dehydrogenase enzyme of C. glutamicum; conditions: threonine inhibition of C. glutamicum homoserine dehydrogenase; read-out: inhibition rate constant (Ki); cited from earlier work
[2] = molecular target: T3, homoserine dehydrogenase (Corynebacterium glutamicum, UniProt P08499); assay: Homoserine dehydrogenase activity in crude cell extracts (initial decrease in absorbance at 340 nm by NADPH); assay type: biochemical, C. glutamicum
T3 construct: Crude cell lysates for homoserine dehydrogenase assays were prepared from 500 ml MMCG C. glutamicum AS019 and R102 cultures; endogenous in cells; host or cells: C. glutamicum AS019 and AS019E12/pMF33 (chromosomal wild-type hom); R102 (chromosomal hom^dr); AS019E12/pJD4 (plasmid-borne hom^dr beside chromosomal wild-type hom)
Experimental: Verified pJD4/AS019EI2 transformants were selected for the presence of the plasmid by growth on kanamycin supplemented mediums. The activity of the homoserine dehydrogenase from crude cell extracts of these cultures was determined in the presence and absence of L-threonine. A host cell encoding wild type homoserine dehydrogenase would be inactivated in the presence of 10 mM L-threonine. […] Therefore, homoserine dehydrogenase activity in the presence of L-threonine was derived from the cloned hom^dr gene. The specific activity of the deregulated homoserine dehydrogenase is approximately the same as that reported for the C. glutamicum chromosomal hom gene (0.0450 μM ml^−1min^1) The cloned hom^dr gene product was functional even in the presence of 120 mM L-threonine.
One ml of the supernatant from an overnight 10 ml MMCG culture of an alpha-hydroxy-valerate tolerant C. glutamicum isolate was filter sterilized and added 1:10 to a fresh 10 ml MMCG medium. […] Growth of AS155 was determined by densitometry after a 24 hour incubation at 30° C. […] The activity of homoserine dehydrogenase in crude cell extracts of C. glutamicum R102 and AS019 in the presence of both threonine and alpha-hydroxy-valerate was measured. […] Homoserine dehydrogenase activity was assayed by determining the initial decrease in the absorbance at 340 nm by NADPH as described by Follettie et al., Mol. Microbiol. […]

[3] = molecular target: T2, homoserine dehydrogenase; design: specific activity reported for the C. glutamicum chromosomal hom gene: unit not given here; conditions: reported value, cited from earlier work

Molecule | Ki [1] [µM] | effect of 10 mM L-threonine on wild type homoserine dehydrogenase [2] | specific activity reported for the C. glutamicum chromosomal hom gene [3] | specific activity reported for wild type ([3]; wild type homoserine dehydrogenase) [μM ml^−1min^−1]
C[C@@H](O)[C@H](N)C(=O)O [L-threonine] | 160 | inactivate |  | 
B1 |  |  | 0.0450 | 0.0450
